Laboratory results as given in US5552520A, “Therapeutic peptide derivatives” (Biomeasure, Inc., priority 1994, dated 1996).
Numbered stars: 1 amine (or outer) side, 2 acyl side, 3 side chain; on linkers, the order of the positions; unused ones are H or OH. Bridge positions count the residues as written; N and C are the ends. Square brackets hold non-standard residues; d marks the D form. Peptide text beside a SMILES is read from it. * marks the point of attachment. X1 = O=C1O[C@H]([C@@H](O)CO)C(OCC(=O)*)=C1OCC(O)CO; 2Nal = N[C@@H](Cc1ccc2ccccc2c1)C(=O)O; Suc = O=C(CCC(=O)[*:2])[*:1]; NHC(CH2OH)3 = OCC(CO)(CO)N*

Experiments:
[1] = test system: AR42J rat pancreas tumor cells; assay: Antiproliferative assay on AR42J cells; format: cell-based; details: Concentration 100 nM, AR42J Rat Pancreas Tumor Cells after 8 days
Method: The purified somatostatin analogs described above were also tested for activity against rapidly proliferating cells.
^1 Concentration 100 nM, AR42J Rat Pancreas Tumor Cells after 8 days.

[2] = test system: AR42J rat pancreas tumor cells; assay: Antiproliferative assay on AR42J cells; format: cell-based; details: growth curves, concentration dependence
somatostatin receptor = target: T1, somatostatin receptor (Rattus norvegicus, UniProt P30680); assay: Somatostatin binding assay: in vitro inhibition of binding of [125I-Tyr11]SRIF-14 to rat AR42J pancreas membranes; details: inhibition of [125I-Tyr11]SRIF-14 binding, read-out: IC50, in vitro binding affinity
T1 construct: SRIF-14 to rat AR42J pancreas membranes; endogenous in cells; host or cells: rat AR42J pancreatic cells (membrane preparation)
T1 sequence (P30680 whole entry): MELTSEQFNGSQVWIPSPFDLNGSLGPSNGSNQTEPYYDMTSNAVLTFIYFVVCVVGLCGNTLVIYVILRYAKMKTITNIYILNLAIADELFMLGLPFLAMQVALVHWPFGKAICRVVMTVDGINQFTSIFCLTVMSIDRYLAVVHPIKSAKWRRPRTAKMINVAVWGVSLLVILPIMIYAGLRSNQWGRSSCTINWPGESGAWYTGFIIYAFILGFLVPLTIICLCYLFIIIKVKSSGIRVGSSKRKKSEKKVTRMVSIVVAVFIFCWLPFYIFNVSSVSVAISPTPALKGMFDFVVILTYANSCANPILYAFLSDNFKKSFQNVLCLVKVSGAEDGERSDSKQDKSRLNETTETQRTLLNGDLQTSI

[3] = test system: stimulated growth hormone release; assay: Growth Hormone (GH) Inhibition Assay in rats (D-Ala2-GRF stimulated GH); format: in vivo, male Sprague Dawley rats; details: s.c., 25 μg/kg
Method: Groups of five male Sprague Dawley rats (each having a weight between 250-300 g) were injected s.c. with a somatostatin derivative or saline. Thirty minutes prior to the selected post-drug time periods shown in table II (2 hours, 4 hours, 6 hours, 8 hours), rats were anesthetized with Nembutal i.p. (50 mg/kg). Fifteen minutes following anesthesia, an aliquot of blood was withdrawn by cardiac puncture over heparin to measure basal GH. Additionally, a s.c. injection of D-Ala^2 -GRF (10 μg/kg) was given. Fifteen minutes later, blood was withdrawn to quantitate the stimulated GH, which was measured in plasma using a radioimmunoassay supplied by NIADDKD. The percentage of GH inhibition was calculated from differences obtained between basal and stimulated GH values.
The efficacy of D-Phe-c[Cys-Tyr-D-Trp-Lys-Thr-Cys]-Nal-NH2 (SEQ ID NO. 113) (BIM-23060) in inhibiting growth hormone in rats is compared with other somatostatin derivatives (BIM-23167, BIM-23179, and BIM-23181) of the invention.
Additional experiments were conducted on D-Phe-c[Cys-Tyr-D-Trp-Lys-Abu-Cys]-Thr-NH2, (SEQ ID NO. 112) a somatostatin analog, and BIM-23190, BIM-23195 and BIM-23197, to determine the ED50 (i.e., the concentration of each compound required to inhibit fifty percent of growth hormone release after a specified time) of the respective compound. Experiments were conducted at a dose range of between 25 μg/kg and 0.25 μg/kg.

CC(C)[C@@H]1NC(=O)[C@H](CCCCN)NC(=O)[C@@H](Cc2c[nH]c3ccccc23)NC(=O)[C@H](Cc2ccc(O)cc2)NC(=O)[C@@H](NC(=O)[C@@H](Cc2ccc3ccccc3c2)NC(=O)CCCOC2=C(O)C(=O)O[C@@H]2[C@@H](O)CO)CSSC[C@@H](C(=O)N[C@H](C(N)=O)[C@@H](C)O)NC1=O [BIM-23118] was tested, and the “Cell growth (percent of control)” value [1] was 61.0% of control and the “Inhibition of growth of AR42J cells (FIG. 1), in words” value [2] was “the more effective of the two compounds”.

With C[C@@H](O)[C@@H]1NC(=O)[C@H](CCCCN)NC(=O)[C@@H](Cc2c[nH]c3ccccc23)NC(=O)[C@H](Cc2ccc(O)cc2)NC(=O)[C@@H](NC(=O)[C@@H](Cc2ccccc2)NC(=O)CCC(=O)NC(CO)(CO)CO)CSSC[C@@H](C(=O)N[C@@H](Cc2ccc3ccccc3c2)C(N)=O)NC1=O [BIM-23167, (HO-CH2)3 -C-NH-CO-(CH2)2 -CO-D-Phe-c[Cys-Tyr-D-Trp-Lys-Thr-Cys]-Nal-NH2] ({NHC(CH2OH)3-Suc}-[dF]CY[dW]KTC[2Nal]-NH2; disulfide 2-7) the IC50 (somatostatin receptor) was 0.09 nM, the “Inhibition of stimulated growth hormone release (percentile control)” value (“Inhibition … (percentile control)” for short) ([3]; 2 Hours) was 92.67 percentile control and the “Inhibition … (percentile control)” value ([3]; 4 Hours) was 79.54 percentile control. For the same molecule, the “Inhibition … (percentile control)” value ([3]; 6 Hours) was 59.72 percentile control, the “Inhibition … (percentile control)” value ([3]; 8 Hours) was 50.14 percentile control and the “Cell growth (percent of control)” value [1] was 60.2% of control.

In the case of C[C@@H](O)[C@@H]1NC(=O)[C@H](CCCCN)NC(=O)[C@@H](Cc2c[nH]c3ccccc23)NC(=O)[C@H](Cc2ccc(O)cc2)NC(=O)[C@@H](NC(=O)[C@@H](Cc2ccccc2)NC(=O)COC2=C(OCC(O)CO)C(=O)O[C@@H]2[C@@H](O)CO)CSSC[C@@H](C(=O)N[C@@H](Cc2ccc3ccccc3c2)C(N)=O)NC1=O (stereo partly drawn) [BIM-23181] (X1-[dF]CY[dW]KTC[2Nal]-NH2; disulfide 2-7), the “Inhibition … (percentile control)” value ([3]; 2 Hours) is reported as 99.24 percentile control, the “Inhibition … (percentile control)” value ([3]; 4 Hours) is reported as 77.07 percentile control and the “Inhibition … (percentile control)” value ([3]; 6 Hours) is reported as 60.56 percentile control. For the same molecule, the “Inhibition … (percentile control)” value ([3]; 8 Hours) was 56.12 percentile control and the “Cell growth (percent of control)” value [1] was 69.1% of control.

“D-Nal-c[Cys-Tyr-D-Trp-Lys-Val-Cys]-Thr-NH2 [BIM-23014C, reference compound]” was tested, and the “Cell growth (percent of control)” value [1] was 74.1% of control and the “Inhibition of growth of AR42J cells (FIG. 1), in words” value [2] was “inhibit the growth of AR42J rat pancreas tumor cells in a concentration-dependent fashion”.
